Literature values, collected in patent publication US10759826B2, “15β-substituted estrone derivatives as selective inhibitors of 17β-hydroxysteroid-dehydrogenases, method of preparation and use thereof” (USTAV ORGANICKE CHEMIE A BIOCHEMIE AV CR, V.V.I., priority 2016, dated 2020).

System: T-47D ER+ cells
Settings: Laplante et al. 2008; cited from earlier work

For `C[C@]12CC[C@@H]3c4ccc(O)cc4CC[C@H]3[C@@H]1C[C@H](Cc1cccc(C(N)=O)c1)[C@@H]2O` [Compound E2B, 16β-m-carbamoylbenzyl-E2], the “reduction of proliferation induced by the physiological level of E1” value is listed as 62%.
